Assay results: ChEMBL document CHEMBL3399966, “Isosteric replacements of the carboxylic acid of drug candidate VX-787: Effect of charge on antiviral potency and kinase activity of azaindole-based influenza PB2 inhibitors” (Bioorg Med Chem Lett, 2015)

Assays:
Influenza A virus [1] = assay: Antiviral activity against Influenza A virus A/PR/8/34 strain incubated with MDCK cells assessed as cell protection after 72 hrs by phenotypic cell protection assay; type: functional, organism-based; settings: A/Puerto Rico/8/1934(H1N1)
Influenza A virus [2] = assay: Antiviral activity against influenza A virus A/PR/8/34 strain incubated with MDCK cells assessed as reduction of viral RNA level equal to 1% of control level after 72 hrs by branched DNA assay; type: functional, organism-based; settings: A/Puerto Rico/8/1934(H1N1)
[3] = molecular target: Tyrosine-protein kinase JAK2 (Homo sapiens, UniProt O60674); assay: Inhibition of JAK2 (unknown origin)
[4] = molecular target: Glycogen synthase kinase-3 (Homo sapiens, UniProt P49840+P49841); assay: Inhibition of GSK3 (unknown origin); type: protein assay
[5] = molecular target: T1, Receptor-type tyrosine-protein kinase FLT3 (Homo sapiens, UniProt P36888); assay: Inhibition of FLT3 (unknown origin)
T1 sequence (P36888 whole entry): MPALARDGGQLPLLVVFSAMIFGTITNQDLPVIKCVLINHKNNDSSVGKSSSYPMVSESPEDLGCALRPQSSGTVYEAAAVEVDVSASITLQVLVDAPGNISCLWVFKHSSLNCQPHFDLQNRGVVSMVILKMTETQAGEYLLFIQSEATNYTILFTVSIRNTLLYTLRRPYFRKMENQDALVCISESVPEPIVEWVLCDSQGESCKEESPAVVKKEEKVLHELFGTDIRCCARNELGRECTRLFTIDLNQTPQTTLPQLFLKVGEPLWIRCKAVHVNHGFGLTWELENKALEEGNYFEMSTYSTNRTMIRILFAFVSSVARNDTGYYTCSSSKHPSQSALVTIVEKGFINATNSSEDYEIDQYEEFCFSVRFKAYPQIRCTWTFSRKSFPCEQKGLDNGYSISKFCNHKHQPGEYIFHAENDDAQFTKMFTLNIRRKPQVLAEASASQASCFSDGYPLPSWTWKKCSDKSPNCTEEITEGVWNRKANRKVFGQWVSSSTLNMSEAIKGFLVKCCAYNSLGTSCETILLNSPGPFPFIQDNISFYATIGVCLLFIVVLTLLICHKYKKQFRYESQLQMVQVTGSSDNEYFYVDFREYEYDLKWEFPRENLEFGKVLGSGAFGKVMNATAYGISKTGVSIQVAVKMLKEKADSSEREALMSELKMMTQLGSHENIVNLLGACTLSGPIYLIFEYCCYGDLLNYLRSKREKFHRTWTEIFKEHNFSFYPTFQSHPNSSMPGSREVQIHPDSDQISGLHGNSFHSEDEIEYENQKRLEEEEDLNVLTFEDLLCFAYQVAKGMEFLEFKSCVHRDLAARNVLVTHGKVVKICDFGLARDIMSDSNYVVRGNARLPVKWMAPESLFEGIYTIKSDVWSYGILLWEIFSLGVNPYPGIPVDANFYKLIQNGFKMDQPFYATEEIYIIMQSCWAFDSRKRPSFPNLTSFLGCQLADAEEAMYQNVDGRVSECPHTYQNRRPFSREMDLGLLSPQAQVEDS

[6] = molecular target: Mitogen-activated protein kinase 10 (Homo sapiens, UniProt P53779); assay: Inhibition of JNK3 (unknown origin)
Mitogen-activated protein kinase 10, sequence (P53779 whole entry): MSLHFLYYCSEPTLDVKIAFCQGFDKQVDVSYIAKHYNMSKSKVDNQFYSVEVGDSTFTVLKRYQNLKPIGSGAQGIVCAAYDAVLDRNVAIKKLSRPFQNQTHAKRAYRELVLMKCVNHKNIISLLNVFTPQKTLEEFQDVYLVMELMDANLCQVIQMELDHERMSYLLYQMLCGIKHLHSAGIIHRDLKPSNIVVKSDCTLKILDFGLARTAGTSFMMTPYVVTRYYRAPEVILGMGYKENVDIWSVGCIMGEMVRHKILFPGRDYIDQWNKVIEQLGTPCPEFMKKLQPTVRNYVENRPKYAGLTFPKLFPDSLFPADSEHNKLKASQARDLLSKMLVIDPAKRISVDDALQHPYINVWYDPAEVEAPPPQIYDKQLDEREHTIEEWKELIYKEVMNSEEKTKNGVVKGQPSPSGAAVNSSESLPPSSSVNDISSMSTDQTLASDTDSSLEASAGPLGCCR

[7] = molecular target: Rho-associated protein kinase (Homo sapiens, UniProt O75116+Q13464); assay: Inhibition of ROCK (unknown origin); type: protein-complex assay
[8] = molecular target: Vascular endothelial growth factor receptor 2 (Homo sapiens, UniProt P35968); assay: Inhibition of KDR (unknown origin)
Vascular endothelial growth factor receptor 2, sequence (P35968 whole entry): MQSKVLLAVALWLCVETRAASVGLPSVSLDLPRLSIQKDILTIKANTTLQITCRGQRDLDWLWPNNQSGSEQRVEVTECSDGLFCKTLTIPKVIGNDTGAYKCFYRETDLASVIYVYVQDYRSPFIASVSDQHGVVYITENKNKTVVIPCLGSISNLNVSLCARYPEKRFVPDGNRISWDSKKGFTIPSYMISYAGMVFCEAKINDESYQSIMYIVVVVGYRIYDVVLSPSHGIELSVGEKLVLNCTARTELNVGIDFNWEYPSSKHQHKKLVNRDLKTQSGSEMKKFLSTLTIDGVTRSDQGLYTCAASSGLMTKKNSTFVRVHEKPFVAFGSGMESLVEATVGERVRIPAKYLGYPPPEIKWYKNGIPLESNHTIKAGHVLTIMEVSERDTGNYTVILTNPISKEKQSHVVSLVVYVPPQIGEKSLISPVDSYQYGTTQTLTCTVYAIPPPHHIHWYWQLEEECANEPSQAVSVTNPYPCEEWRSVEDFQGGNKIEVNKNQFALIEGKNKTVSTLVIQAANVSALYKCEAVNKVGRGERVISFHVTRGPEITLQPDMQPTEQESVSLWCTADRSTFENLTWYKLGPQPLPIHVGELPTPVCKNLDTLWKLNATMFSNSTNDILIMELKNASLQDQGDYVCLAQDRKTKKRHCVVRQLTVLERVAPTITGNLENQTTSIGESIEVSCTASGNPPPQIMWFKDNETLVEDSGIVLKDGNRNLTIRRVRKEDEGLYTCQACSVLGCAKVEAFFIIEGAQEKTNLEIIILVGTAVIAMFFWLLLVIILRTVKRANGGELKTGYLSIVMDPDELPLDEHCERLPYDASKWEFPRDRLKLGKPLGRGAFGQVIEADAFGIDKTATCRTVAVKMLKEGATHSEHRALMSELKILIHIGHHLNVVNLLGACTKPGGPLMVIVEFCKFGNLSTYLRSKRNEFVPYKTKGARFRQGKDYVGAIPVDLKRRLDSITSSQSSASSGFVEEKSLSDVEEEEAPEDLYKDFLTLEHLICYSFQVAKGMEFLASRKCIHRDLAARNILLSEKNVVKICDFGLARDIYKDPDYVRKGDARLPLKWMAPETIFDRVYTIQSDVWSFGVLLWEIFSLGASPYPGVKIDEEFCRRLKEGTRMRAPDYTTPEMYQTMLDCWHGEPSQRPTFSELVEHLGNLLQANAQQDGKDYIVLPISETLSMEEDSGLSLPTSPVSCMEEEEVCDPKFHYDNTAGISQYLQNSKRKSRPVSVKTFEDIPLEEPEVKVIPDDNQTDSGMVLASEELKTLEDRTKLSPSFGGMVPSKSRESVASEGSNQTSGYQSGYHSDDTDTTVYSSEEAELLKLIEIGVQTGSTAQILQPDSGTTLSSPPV

[9] = molecular target: Proto-oncogene tyrosine-protein kinase Src (Homo sapiens, UniProt P12931); assay: Inhibition of SRC (unknown origin)
[10] = molecular target: cAMP-dependent protein kinase catalytic subunit alpha (Homo sapiens, UniProt P17612); assay: Inhibition of PKAa (unknown origin)
[11] = molecular target: T2, Interleukin-1 receptor-associated kinase 4 (Homo sapiens, UniProt Q9NWZ3); assay: Inhibition of IRAK4 (unknown origin)
T2 sequence (Q9NWZ3 whole entry): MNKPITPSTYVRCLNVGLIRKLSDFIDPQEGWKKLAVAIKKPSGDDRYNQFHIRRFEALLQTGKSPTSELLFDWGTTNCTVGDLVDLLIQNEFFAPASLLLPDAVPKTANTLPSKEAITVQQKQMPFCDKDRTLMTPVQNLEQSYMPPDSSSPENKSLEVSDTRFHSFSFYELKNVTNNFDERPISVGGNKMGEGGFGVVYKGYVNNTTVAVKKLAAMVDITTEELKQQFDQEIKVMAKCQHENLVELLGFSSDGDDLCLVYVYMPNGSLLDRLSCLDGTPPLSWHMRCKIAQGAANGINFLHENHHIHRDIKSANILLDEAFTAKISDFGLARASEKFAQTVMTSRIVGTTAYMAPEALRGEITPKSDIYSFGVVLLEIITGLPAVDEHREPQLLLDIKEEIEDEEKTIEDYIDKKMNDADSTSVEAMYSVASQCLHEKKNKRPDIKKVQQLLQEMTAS

[12] = molecular target: Tyrosine-protein kinase SYK (Homo sapiens, UniProt P43405); assay: Inhibition of SYK (unknown origin)
[13] = molecular target: Cyclin-dependent kinase 2 (Homo sapiens, UniProt P24941); assay: Inhibition of CDK2 (unknown origin)
[14] = molecular target: Serine/threonine-protein kinase PLK1 (Homo sapiens, UniProt P53350); assay: Inhibition of PLK (unknown origin)
Serine/threonine-protein kinase PLK1, sequence (P53350 whole entry): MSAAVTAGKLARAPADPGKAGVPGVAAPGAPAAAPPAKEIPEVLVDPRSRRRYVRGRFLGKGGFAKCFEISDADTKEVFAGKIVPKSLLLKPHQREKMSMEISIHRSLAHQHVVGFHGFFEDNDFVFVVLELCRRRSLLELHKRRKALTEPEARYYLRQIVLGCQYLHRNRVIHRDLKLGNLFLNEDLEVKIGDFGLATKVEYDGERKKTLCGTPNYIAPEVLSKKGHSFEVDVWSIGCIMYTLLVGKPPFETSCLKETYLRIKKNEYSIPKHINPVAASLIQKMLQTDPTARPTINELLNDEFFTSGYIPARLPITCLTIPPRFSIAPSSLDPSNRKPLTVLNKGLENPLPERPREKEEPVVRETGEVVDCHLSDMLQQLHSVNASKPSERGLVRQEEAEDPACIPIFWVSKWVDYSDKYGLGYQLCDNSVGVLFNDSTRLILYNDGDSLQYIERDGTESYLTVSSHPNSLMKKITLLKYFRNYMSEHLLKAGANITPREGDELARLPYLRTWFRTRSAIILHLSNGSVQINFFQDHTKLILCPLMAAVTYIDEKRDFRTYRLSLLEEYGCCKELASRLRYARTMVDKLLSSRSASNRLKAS

[15] = molecular target: Hepatocyte growth factor receptor (Homo sapiens, UniProt P08581); assay: Inhibition of MET (unknown origin)
[16] = molecular target: Phosphatidylinositol 4,5-bisphosphate 3-kinase catalytic subunit alpha isoform (Homo sapiens, UniProt P42336); assay: Inhibition of PI3Kalpha (unknown origin)
[17] = molecular target: T3, Phosphatidylinositol 4,5-bisphosphate 3-kinase catalytic subunit delta isoform (Homo sapiens, UniProt O00329); assay: Inhibition of PI3Kdelta (unknown origin)
T3 sequence (O00329 whole entry): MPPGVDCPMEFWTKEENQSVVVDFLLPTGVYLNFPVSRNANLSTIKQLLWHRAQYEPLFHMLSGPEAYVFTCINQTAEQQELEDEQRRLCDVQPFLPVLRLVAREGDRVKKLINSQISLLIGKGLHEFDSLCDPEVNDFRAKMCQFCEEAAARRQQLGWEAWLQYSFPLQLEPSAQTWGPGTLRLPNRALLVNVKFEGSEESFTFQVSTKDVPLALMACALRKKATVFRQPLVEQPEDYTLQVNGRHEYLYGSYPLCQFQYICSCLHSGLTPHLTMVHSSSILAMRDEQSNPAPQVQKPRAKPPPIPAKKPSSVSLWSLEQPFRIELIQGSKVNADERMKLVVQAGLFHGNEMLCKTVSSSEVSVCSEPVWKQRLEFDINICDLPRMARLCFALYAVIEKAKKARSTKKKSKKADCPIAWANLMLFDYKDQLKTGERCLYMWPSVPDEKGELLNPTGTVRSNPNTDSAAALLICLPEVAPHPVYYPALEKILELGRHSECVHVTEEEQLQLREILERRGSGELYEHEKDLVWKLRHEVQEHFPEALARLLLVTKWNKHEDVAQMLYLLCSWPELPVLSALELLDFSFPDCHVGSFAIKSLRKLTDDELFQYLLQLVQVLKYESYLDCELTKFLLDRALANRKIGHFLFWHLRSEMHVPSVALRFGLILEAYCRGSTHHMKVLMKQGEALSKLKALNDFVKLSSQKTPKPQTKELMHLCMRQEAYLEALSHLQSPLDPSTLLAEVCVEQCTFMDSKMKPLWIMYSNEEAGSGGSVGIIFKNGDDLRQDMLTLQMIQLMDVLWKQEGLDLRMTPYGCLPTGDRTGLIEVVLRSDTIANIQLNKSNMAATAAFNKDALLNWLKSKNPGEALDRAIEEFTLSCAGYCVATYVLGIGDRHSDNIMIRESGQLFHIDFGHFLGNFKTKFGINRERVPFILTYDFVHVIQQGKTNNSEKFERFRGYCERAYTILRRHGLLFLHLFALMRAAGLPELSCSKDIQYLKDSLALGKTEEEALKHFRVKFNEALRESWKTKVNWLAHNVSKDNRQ

[18] = molecular target: Phosphatidylinositol 4,5-bisphosphate 3-kinase catalytic subunit gamma isoform (Homo sapiens, UniProt P48736); assay: Inhibition of PI3Kgamma (unknown origin)
Phosphatidylinositol 4,5-bisphosphate 3-kinase catalytic subunit gamma isoform, sequence (P48736 whole entry, canonical isoform): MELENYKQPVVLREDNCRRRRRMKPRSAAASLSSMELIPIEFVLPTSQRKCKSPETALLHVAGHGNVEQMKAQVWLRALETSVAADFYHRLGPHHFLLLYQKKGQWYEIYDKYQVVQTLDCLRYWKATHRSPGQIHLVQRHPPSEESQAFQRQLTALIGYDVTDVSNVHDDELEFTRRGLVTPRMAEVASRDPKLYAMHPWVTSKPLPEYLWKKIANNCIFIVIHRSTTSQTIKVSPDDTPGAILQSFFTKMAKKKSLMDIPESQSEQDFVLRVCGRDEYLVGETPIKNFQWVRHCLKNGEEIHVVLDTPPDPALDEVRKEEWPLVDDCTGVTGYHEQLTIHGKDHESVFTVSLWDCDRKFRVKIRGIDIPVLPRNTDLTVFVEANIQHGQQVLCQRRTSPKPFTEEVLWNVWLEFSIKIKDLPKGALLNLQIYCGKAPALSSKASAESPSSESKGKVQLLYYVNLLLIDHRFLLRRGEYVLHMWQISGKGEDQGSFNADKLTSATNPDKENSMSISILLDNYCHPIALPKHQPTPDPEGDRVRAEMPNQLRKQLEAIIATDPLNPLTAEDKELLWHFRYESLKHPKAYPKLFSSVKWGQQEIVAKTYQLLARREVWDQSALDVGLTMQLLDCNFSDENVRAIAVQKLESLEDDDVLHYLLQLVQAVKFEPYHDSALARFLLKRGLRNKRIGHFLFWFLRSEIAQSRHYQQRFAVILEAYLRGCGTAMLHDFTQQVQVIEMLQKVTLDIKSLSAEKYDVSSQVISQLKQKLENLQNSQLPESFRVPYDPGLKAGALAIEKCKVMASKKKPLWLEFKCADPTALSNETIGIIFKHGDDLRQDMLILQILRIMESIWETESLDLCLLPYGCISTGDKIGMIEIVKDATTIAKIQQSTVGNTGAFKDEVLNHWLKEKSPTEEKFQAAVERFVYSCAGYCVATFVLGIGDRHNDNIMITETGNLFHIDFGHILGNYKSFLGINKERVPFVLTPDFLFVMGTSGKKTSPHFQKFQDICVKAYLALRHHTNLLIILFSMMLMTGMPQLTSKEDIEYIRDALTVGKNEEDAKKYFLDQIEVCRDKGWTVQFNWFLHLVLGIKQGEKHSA

[19] = molecular target: Phosphatidylinositol 4,5-bisphosphate 3-kinase catalytic subunit beta isoform (Homo sapiens, UniProt P42338); assay: Inhibition of PI3Kbeta (unknown origin)
Phosphatidylinositol 4,5-bisphosphate 3-kinase catalytic subunit beta isoform, sequence (P42338 whole entry, canonical isoform): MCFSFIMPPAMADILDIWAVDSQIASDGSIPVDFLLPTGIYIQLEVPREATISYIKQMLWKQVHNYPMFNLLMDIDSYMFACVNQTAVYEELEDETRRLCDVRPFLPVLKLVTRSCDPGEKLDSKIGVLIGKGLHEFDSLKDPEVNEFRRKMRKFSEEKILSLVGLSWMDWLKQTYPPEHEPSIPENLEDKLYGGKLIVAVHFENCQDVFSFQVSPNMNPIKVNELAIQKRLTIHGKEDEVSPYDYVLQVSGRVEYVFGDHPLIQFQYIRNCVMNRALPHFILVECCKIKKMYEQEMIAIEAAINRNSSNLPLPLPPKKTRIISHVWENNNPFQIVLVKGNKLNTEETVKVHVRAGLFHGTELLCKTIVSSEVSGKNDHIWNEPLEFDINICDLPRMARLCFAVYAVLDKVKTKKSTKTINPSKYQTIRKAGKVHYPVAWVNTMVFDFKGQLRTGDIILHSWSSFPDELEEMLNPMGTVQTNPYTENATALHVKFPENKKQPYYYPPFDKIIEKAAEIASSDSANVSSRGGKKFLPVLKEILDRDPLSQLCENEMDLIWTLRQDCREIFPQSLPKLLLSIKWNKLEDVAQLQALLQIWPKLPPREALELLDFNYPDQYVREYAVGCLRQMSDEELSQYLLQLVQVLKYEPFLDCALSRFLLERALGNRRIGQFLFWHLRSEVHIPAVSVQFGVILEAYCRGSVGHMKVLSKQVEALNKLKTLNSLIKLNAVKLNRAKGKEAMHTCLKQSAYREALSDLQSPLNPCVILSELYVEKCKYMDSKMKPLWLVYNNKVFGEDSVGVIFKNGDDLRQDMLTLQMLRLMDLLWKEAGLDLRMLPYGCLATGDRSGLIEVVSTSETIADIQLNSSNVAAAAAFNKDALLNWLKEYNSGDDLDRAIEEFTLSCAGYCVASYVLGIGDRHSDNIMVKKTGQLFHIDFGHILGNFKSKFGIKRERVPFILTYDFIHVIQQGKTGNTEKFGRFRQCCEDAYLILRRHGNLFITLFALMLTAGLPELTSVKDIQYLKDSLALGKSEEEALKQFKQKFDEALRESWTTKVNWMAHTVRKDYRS

Row | SMILES | IC50 (Influenza A virus [1]) | EC50 (Influenza A virus [2]) | EC99 (Influenza A virus [2]) | Ki [3] | Ki [4] | Ki [5] | Ki [6] | Ki [7] | Ki [8] | Ki [9] | Ki [10] | Ki [11] | Ki [12] | Ki [13] | Ki [14] | Ki [15] | Ki [16] | Ki [17] | Ki [18] | Ki [19]
1 | Cc1nnc([C@H]2C3CCC(CC3)[C@@H]2Nc2nc(-c3c[nH]c4ncc(F)cc34)ncc2F)o1 (mixture of isomers) | 0.13 µM | 0.17 µM | 1.9 µM | > 4 µM | 1.1 µM | 1.8 µM | > 4 µM | > 4 µM | > 4 µM | > 4 µM | > 4 µM | > 4 µM | > 4 µM | > 4 µM | > 4 µM | > 4 µM | > 4 µM | 1.2 µM | 2.8 µM | > 4 µM
2 | Oc1cc([C@H]2C3CCC(CC3)[C@@H]2Nc2nc(-c3c[nH]c4ncc(F)cc34)ncc2F)[nH]n1 (mixture of isomers) | 0.16 µM | 0.14 µM | 0.76 µM | > 4 µM | 1.2 µM | 4 µM | > 4 µM | > 4 µM | > 4 µM | > 4 µM | > 4 µM | > 4 µM | > 4 µM | > 4 µM | 1.7 µM | > 4 µM | > 4 µM | > 4 µM | > 4 µM | > 4 µM
3 | CNC(=O)[C@H]1C2CCC(CC2)[C@@H]1Nc1nc(-c2c[nH]c3ncc(F)cc23)ncc1F (mixture of isomers) | 0.014 µM | 0.035 µM | 0.31 µM | 1.1 µM | 0.23 µM | 1.4 µM | > 4 µM | > 4 µM | > 4 µM | 2.5 µM | > 4 µM | > 4 µM | > 4 µM | > 4 µM | > 4 µM | > 4 µM | > 4 µM | > 4 µM | > 4 µM | > 4 µM
4 | CS(=O)(=O)[C@H]1C2CCC(CC2)[C@@H]1Nc1nc(-c2c[nH]c3ncc(F)cc23)ncc1F (mixture of isomers) | 0.23 µM | 0.002 µM | 2.2 µM | 0.74 µM | 0.077 µM | 0.84 µM | > 4 µM | 2.7 µM | 1.5 µM | 3.1 µM | 1.5 µM | > 4 µM | > 4 µM | > 4 µM | > 4 µM | > 4 µM | > 4 µM | 3.3 µM | 1.2 µM | > 4 µM
5 | Oc1cc([C@H]2C3CCC(CC3)[C@@H]2Nc2nc(-c3c[nH]c4ncc(F)cc34)ncc2F)on1 (mixture of isomers) | 0.001 µM | 0.002 µM | 0.033 µM | > 4 µM | 1.6 µM | > 4 µM | > 4 µM | > 4 µM | > 4 µM | > 4 µM | > 4 µM | > 4 µM | > 4 µM | > 4 µM | > 4 µM | > 4 µM | 1.3 µM | > 4 µM | 0.69 µM | > 4 µM
